Test results published in patent US20110117166A1, “IMPLANTABLE BONE GRAFT MATERIALS” (AFFINERGY, INC., priority 2009, published 2011).
Ends that are not written are not given here.

Assays:
BMP-2 = target: T1, BMP-2 (Homo sapiens, UniProt P12643); test: ELISA of BMP-2 bound to biotinylated peptides immobilized on streptavidin plates; assay type: binding; conditions: FIG. 14A; BMP-2 200 nM, 20 nM and 2 nM, 45 minutes
T1 sequence (P12643 283-396): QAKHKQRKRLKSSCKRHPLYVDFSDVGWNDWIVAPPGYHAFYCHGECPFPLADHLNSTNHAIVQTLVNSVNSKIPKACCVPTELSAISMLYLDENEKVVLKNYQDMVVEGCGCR
Procedure: BMP binding peptides SEQ ID NOs:1-4 & 8-10 were identified as described in US Patent Application Publication No. US20060051395A1. Briefly, the peptides were identified by phage display using immobilized BMP-2 as a substrate for the phage library selections. Synthetic peptides SEQ ID NOs: 1-2 were determined to bind to BMP-2 with a relative EC50 value of 0.8 nM and 0.9 nM, respectively (data not shown). Separately, the relative binding affinity of peptides SEQ ID NOs: 1-2 for BMP-2 is shown in FIG. 14A (SEQ ID NO: 1 is denoted as P9 and SEQ ID NO: 2 is denoted as P10). Briefly, the results shown in FIG. 14A were generated by immobilizing biotinylated BMP binding peptides SEQ ID NOs:1 & 2 on streptavidin coated plates. Serial dilutions of 200 nM, 20 nM and 2 nM of BMP-2 were incubated with the immobilized BMP binding peptides for 45 minutes, washed, and bound BMP quantified using ELISA.

BMP-7 = target: T2, BMP-7 (Homo sapiens, UniProt P18075); test: ELISA of BMP-7 bound to immobilized BMP binding peptides; conditions: FIG. 14B
T2 sequence (P18075 293-431): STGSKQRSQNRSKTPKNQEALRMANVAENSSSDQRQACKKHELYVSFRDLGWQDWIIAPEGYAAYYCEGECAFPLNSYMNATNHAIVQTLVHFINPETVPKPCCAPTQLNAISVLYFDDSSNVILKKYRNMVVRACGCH

C2C12 cells = test: Alkaline phosphatase secretion by C2C12 cells in response to BMP-2 with BMP binding peptide in solution; assay type: cell-based; conditions: peptide 0-3500 nM, 3 days, FIG. 16
Procedure: In an experiment to test the biological activity of BMP-2 delivered by BMP binding peptide, alkaline phosphatase secreted by C2C12 cells in response to BMP-2 was measured in the presence and absence of BMP binding peptide in solution. C2C12 cells were incubated with BMP-2 (35 nM) and BMP binding peptide at a concentration ranging from 0-3500 nM. The C2C12 cells were incubated with the BMP-2 and BMP binding peptide for 3 days and the alkaline phosphatase assay was performed as described herein above.

rat calvarial defect = test: Rat calvarial defect model of bone healing (μCT and histology); assay type: in vivo; conditions: conclusion from saline-hydrated groups
Procedure: The ability of each of the bone void filler collagen/TCP composites (unmodified and BMP binding peptide modified at 5-15 μmol peptide/g collagen described in Example 5) to speed bone healing was assessed in a rat calvarial defect model. A defect was introduced into male Sprague Dawley rats (n=8) as described previously (Poehling, et. al, J Periodontol, 2006, 77:1582-90). A full thickness circular defect, 6.8 mm in diameter, was made in the parietal bone, centered across the midline. The disc of bone was removed, and the void was filled with bone graft substitute material hydrated with or without BMA harvested from the tibia (saline was used for hydration without BMA). […] The calvaria were removed and analyzed by micro-computed tomography (μCT) to provide measurements of bone density (SCANCO MEDICAL; Wayne, Pa.). […] For each sample, 6 sections evenly distributed across the defect were scored by two independent observers, blind to the treatment groups. The slides were scored for osteogenic cellular activity, new bone area, and new bone maturity according to the following procedure. For osteogenic cellular activity, fibroblasts/loose connective tissue, immature cartilage progenitors, immature bone progenitors, giant cells, osteoclasts, osteoblasts, and osteocytes were counted and scored according to the following scale: 1=Rare; 2=Few; 3=Moderate; and 4=Dense. […]

## GGALGFPLKGEVVEGWA-NH2 (C-terminus assumed) [SEQ ID NO: 2]
BMP-2
  relative affinity for BMP-2: high relative affinity
BMP-7
  relative affinity for BMP-7: high relative affinity
C2C12 cells; BMP-2 35 nM
  effect on BMP-2 biological activity (alkaline phosphatase secretion): does not interfere with the biological activity of BMP-2
C2C12 cells
  BMP-2 activity of the peptide on its own (alkaline phosphatase secretion): does not have BMP-2 activity on its own
Rat calvarial defect
  bioactivity of the peptide itself in bone formation: does not possess bioactivity itself

## GGGAWEAFSSLSGSRV-NH2 (C-terminus assumed) [SEQ ID NO: 1]
BMP-2
  relative affinity for BMP-2: high relative affinity
BMP-7
  relative affinity for BMP-7: high relative affinity
